Key:
[1] = test system: α2 (non-selective); test: In vitro radioligand binding assay, α2 (non-selective), [3H]RX 821002; design: concentration or dose not given beside the values; conditions: rat cerebral cortex membranes
Experimental: (§1) Certain compounds were tested by in vitro binding assays using standard procedures. […] These receptors and assays are well known to those skilled in the art, as exemplified by the following: Abramovitz, M. et al. (2000), Biochem. Biophys. Acta., 1483: 285-293 (EP4, IP (PGI2)); Aharony, D. et al. (1993), Mol. Pharmacol., 44: 356-363 (NK2); Ardati, A. et al. (1997), Mol. Pharmacol., 51: 816-824 (NOP (ORL1)); Bignon, E. et al. (1999), J. Pharmacol. Exp. Ther. 289: 742-751 (CCK1 (CCKA)); Bloomquist, B. T. et al. (1998), Biochem. Biophys. Res. Commun., 243: 474-479 (GAL2); Brockhaus, M. et al. (1990), Proc. Natl. Acad. Sci. U.S.A., 87: 3127-3131 (TNF-α); Brown, G. B. (1986), J. Neurosci., 6: 2064-2070 (Na+ channel (site 2)); Buchan, K. W. et al. (1994), Brit. J. Pharmacol., 112: 1251-1257 (ETA); Cesura, A. M. et al. (1990), Mol. Pharmacol., 37: 358-366 (MAO-A); Choi, D. S. et al. (1994), FEBS Lett., 352: 393-399 (5-HT2B); Clark, A. F. et al. (1996), Invest. Ophtalmol. Vis. Sci., 37: 805-813 (GR); Couvineau, A. et al. (1985), Biochem. J., 231: 139-143 (VPAC1 (VIP1)); Dorje, F. et al. (1991), J. Pharmacol. Exp. Ther., 256: 727-733 (M1, M2, M3, M4); Ferry, G. et al. (2001), Eur. J. Pharmacol., 417: 77-89 (PPARγ); Fuchs, S. et al. (2001), Mol. Med., 7: 115-124 (ETB); Fuhlendorff, J. et al. (1990), Proc. Natl. Acad. Sci. U.S.A., 87: 182-186 (Y2); Ganapathy M E. et al. (1999), J. Pharmacol. Exp. Ther., 289: 251-260 (sigma (non-selective)); Gopalakrishnan, M. et al. (1996), J. Pharmacol. Exp. Ther., 276: 289-297 (N neuronal α4β2); Greengrass, P. and Bremner, R. (1979), Eur. J. Pharmacol., 55: 323-326 (α1 (non-selective)); Grandy, D. K. et al. (1989), Proc. Natl. Acad. Sci. U.S.A., 86: 9762-9766 (D25); Guard, S. et al. (1993), Eur. J. Pharmacol., 240:177-184 (BB (non-selective)); Heuillet, E. et al. (1993), J. Neurochem., 60: 868-876 (NK1, P2X); Hope, A. G. et al. (1996), Brit. J. Pharmacol., 118: 1237-1245 (5-HT3); Hoyer, D. et al. (1985), Eur. J. Pharmacol., 118: 1-12 (5-HT1B); Hugues, M. et al. (1982), J. Biol. Chem., 257: 2762-2769 (5-HT2A, SKCa channel); Joseph, S. S. et al. (2004), Naun.-Sch. Arch. Pharm., 369: 525-532 (β2); Le, M. T. et al. (2005), Eur. J. Pharmacol., 513: 35-45 (AT1); Le Fur, G. et al. (1983), Life Sci., 33: 449-457) (BZD (peripheral); Lee, Y. M. et al. (1993), J. Biol. Chem., 268: 8164-8169 (CCK2 (CCKB)); Leurs, R. et al. (1994), Brit. J. Pharmacol., 112: 847-854 (H2); Levin, M. C. et al. (2002), J. Biol. Chem., 277: 30429-30435 (11); Lewin, A. H. et al. (1989), Mol. Pharmacol., 35: 189-194 (Cl− channel (GABA-gated)); Lukas, R. J. (1986), J. Neurochem., 46: 1936-1941 (N muscle-type); Luthin, D. R. et al. (1995), Mol. Pharmacol., 47: 307-313; (A2A); Mackenzie, R. G. et al. (1994), Eur. J. Pharmacol., 266: 79-85 (D3); Mulheron, J. G. et al. (1994), J. Biol. Chem., 269: 12954-12962 (5-HT1A); Meng, F. et al. (1993), Proc. Natl. Acad. Sci. U.S.A., 90: 9954-9958 (κ (KOP)); Monsma, F. J. et al. (1993), Mol. Pharmacol., 43: 320-327 (5-HT6); Neote, K. et al. (1993), Cell, 72: 415-425 (CCR1); Pacholczyk, T. et al. (1991), Nature, 350: 350-354 (sst (non-selective, norepinephrine transporter)); Peralta, E. G. et al. (1987), Embo. J., 6: 3923-3929 (M3); Pristupa, Z. B. et al. (1994), Mol. Pharmacol., 45: 125-135 (dopamine transporter); Pruneau, D. et al. (1998), Brit. J. Pharmacol., 125: 365-372 (B2); Rees, S. et al. (1994), FEBS Lett., 355: 242-246 (5-HT5a); Reynolds, I. J. et al. (1986), J. Pharmacol. Exp. Ther., 237: 731-738 (Ca2+ channel (L, verapamil site)); Rinaldi-Carmona, M. et al. (1996), J. Pharmacol. Exp. Ther., 278: 871-878 (CB1); Salvatore, C. A. et al. (1993), Proc. Natl. Acad. Sci. U.S.A., 90: 10365-10369 (A3); Sarau, H. M. et al. (1997), J. Pharmacol. Exp. Ther., 281: 1303-1311 (NK3); Schioth, H. B. et al. (1997), Neuropeptides, 31: 565-571 (MC4); Sharples, C. […]

[2] = target: T1, 5-HT7 (Homo sapiens, UniProt P34969); test: In vitro radioligand binding assay, 5-HT7, [3H]LSD; design: concentration or dose not given beside the values; conditions: human recombinant (CHO cells)
T1 construct: expressed in transfected cells; host or cells: CHO cells
Experimental: as §1

T1 sequence (P34969 whole entry): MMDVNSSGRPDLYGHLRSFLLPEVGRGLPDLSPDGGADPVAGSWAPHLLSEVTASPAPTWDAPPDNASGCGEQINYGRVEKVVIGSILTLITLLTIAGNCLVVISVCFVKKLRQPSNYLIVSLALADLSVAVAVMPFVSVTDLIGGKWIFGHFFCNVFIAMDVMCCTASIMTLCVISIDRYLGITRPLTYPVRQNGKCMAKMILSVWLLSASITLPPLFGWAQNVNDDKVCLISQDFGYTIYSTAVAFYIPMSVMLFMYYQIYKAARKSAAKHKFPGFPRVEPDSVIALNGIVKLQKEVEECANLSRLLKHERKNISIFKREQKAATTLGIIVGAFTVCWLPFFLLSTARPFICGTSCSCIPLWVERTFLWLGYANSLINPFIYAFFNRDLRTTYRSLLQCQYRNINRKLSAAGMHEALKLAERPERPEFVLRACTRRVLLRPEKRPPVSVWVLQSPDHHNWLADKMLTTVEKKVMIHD

| SMILES | α2 percent inhibition of specific binding [1] [%] | 5HT7 percent inhibition of specific binding [2] [%] |
| --- | --- | --- |
| Fc1cccc2c1[C@H]([C@@H]1CCCN1)OCC2 [Compound I-1, (S)-2-((R)-8-fluoroisochroman-1-yl)pyrrolidine] | 95 | 88 |
| Fc1ccc2c(c1)[C@H]([C@@H]1CCCN1)OCC2 [Compound I-5, (2S)-2-((R)-7-fluoroisochroman-1-yl)pyrrolidine] | 96 | 60 |
| Fc1ccc2c(c1)CCO[C@H]2[C@@H]1CCCN1 [Compound I-9, (S)-2-((R)-6-fluoroisochroman-1-yl)pyrrolidine] | 91 | 80 |
| Clc1ccc2c(c1)[C@H]([C@@H]1CCCN1)OCC2 [Compound I-29, (S)-2-((R)-7-chloroisochroman-1-yl)pyrrolidine] | 97 | 52 |
| Fc1cccc2c1[C@H]([C@@H]1CCN1)OCC2 [Compound I-83, (S)-2-((R)-8-fluoroisochroman-1-yl)azetidine] | 77 | 99 |
| Fc1ccc2c(c1)CCO[C@H]2[C@@H]1CCN1 [Compound I-90, (S)-2-((R)-6-fluoroisochroman-1-yl)azetidine] | 71 | 96 |
| Fc1cccc2c1CCO[C@@H]2[C@@H]1CCN1 [Compound I-94, (S)-2-((S)-5-fluoroisochroman-1-yl)azetidine] | – | 74 |
| Fc1cccc2c1CCO[C@@H]2[C@H]1CCN1 [Compound I-96, (R)-2-((S)-5-fluoroisochroman-1-yl)azetidine] | 81 | 69 |
